Assay results: patent publication US8168647B2, “Vinblastine derivatives, their preparation, use and pharmaceutical compositions comprising the said derivatives” (Shanghai Institute of Materia Medica Chinese Academy of …, priority 2007, dated 2012)
Like-named read-outs stand apart in the source and are kept apart here.

Experiments:
[1] = test system: human non-small cell lung cancer cell line A-549; assay: In vitro cytotoxicity assay, Sulforhodamine B (SRB), A-549; type: cell-based; settings: Homo sapiens
[2] = test system: human cervical carcinoma cell line Hela; assay: In vitro cytotoxicity assay, Sulforhodamine B (SRB), Hela; type: cell-based; settings: Homo sapiens, HeLa
[3] = A549, 72 h, read-out: A549 (IC50, nM)
[4] = 72 h, read-out: Hela (IC50, nM)

CCC1=C[C@@H]2CN(CCc3c([nH]c4ccccc34)[C@@](C(=O)OC)(c3cc4c(cc3OC)N(C)[C@H]3C(O)(CNC(=O)OCc5cccc(Cl)c5)[C@H](OC(C)=O)[C@]5(CC)C=CCN6CC[C@]43[C@@H]65)C2)C1 (stereo partly shown) [BM70]
IC50 [1, 3]: > 1000 nM
IC50 [2, 4]: > 1000 nM

CCCCOCC1(O)[C@H](OC(C)=O)[C@]2(CC)C=CCN3CC[C@@]4(c5cc([C@@]6(C(=O)OC)C[C@@H]7C=C(CC)CN(CCc8c6[nH]c6ccccc86)C7)c(OC)cc5N(C)[C@@H]14)[C@@H]32 (stereo partly shown) [BM4]
IC50 [1, 3]: > 1000 nM
IC50 [2, 4]: 295 nM

CCC1=C[C@@H]2CN(CCc3c([nH]c4ccccc34)[C@@](C(=O)OC)(c3cc4c(cc3OC)N(C)[C@H]3C(O)(CNC(=O)CC(C)(C)C)[C@H](OC(C)=O)[C@]5(CC)C=CCN6CC[C@]43[C@@H]65)C2)C1 (stereo partly shown) [BM31]
IC50 [1, 3]: 395 nM
IC50 [2, 4]: 245 nM

CCCOCC1(O)[C@H](OC(C)=O)[C@]2(CC)C=CCN3CC[C@@]4(c5cc([C@@]6(C(=O)OC)C[C@@H]7C=C(CC)CN(CCc8c6[nH]c6ccccc86)C7)c(OC)cc5N(C)[C@@H]14)[C@@H]32 (stereo partly shown) [BM3]
IC50 [1, 3]: > 1000 nM
IC50 [2, 4]: > 1000 nM

CCC1=C[C@@H]2CN(CCc3c([nH]c4ccccc34)[C@@](C(=O)OC)(c3cc4c(cc3OC)N(C)[C@H]3C(O)(CNC(=O)OCc5ccc([N+](=O)[O-])cc5)[C@H](OC(C)=O)[C@]5(CC)C=CCN6CC[C@]43[C@@H]65)C2)C1 (stereo partly shown) [BM73]
IC50 [1, 3]: 780 nM
IC50 [2, 4]: 432 nM

CCC1=C[C@@H]2CN(CCc3c([nH]c4ccccc34)[C@@](C(=O)OC)(c3cc4c(cc3OC)N(C)[C@H]3C(O)(CNC(=O)OC5CCC5)[C@H](OC(C)=O)[C@]5(CC)C=CCN6CC[C@]43[C@@H]65)C2)C1 (stereo partly shown) [BM58]
IC50 [1, 3]: 97.3 nM
IC50 [2, 4]: 62.9 nM

CCC1=C[C@@H]2CN(CCc3c([nH]c4ccccc34)[C@@](C(=O)OC)(c3cc4c(cc3OC)N(C)[C@H]3C(O)(CNC(=O)C(C)(C)C)[C@H](OC(C)=O)[C@]5(CC)C=CCN6CC[C@]43[C@@H]65)C2)C1 (stereo partly shown) [BM34]
IC50 [1, 3]: 338 nM
IC50 [2, 4]: 73.5 nM

CCC1=C[C@@H]2CN(CCc3c([nH]c4ccccc34)[C@@](C(=O)OC)(c3cc4c(cc3OC)N(C)[C@H]3C(O)(CNC(=O)OC5CCCC5)[C@H](OC(C)=O)[C@]5(CC)C=CCN6CC[C@]43[C@@H]65)C2)C1 (stereo partly shown) [BM59]
IC50 [1, 3]: 170 nM
IC50 [2, 4]: 79.8 nM

CCC1=C[C@@H]2CN(CCc3c([nH]c4ccccc34)[C@@](C(=O)OC)(c3cc4c(cc3OC)N(C)[C@H]3C(O)(CNC(=O)CC(C)C)[C@H](OC(C)=O)[C@]5(CC)C=CCN6CC[C@]43[C@@H]65)C2)C1 (stereo partly shown) [BM30]
IC50 [1, 3]: > 1000 nM
IC50 [2, 4]: > 1000 nM

CCC1=C[C@@H]2CN(CCc3c([nH]c4ccccc34)[C@@](C(=O)OC)(c3cc4c(cc3OC)N(C)[C@H]3C(O)(CNC(=O)OCCOC)[C@H](OC(C)=O)[C@]5(CC)C=CCN6CC[C@]43[C@@H]65)C2)C1 (stereo partly shown) [BM54]
IC50 [1, 3]: 632 nM
IC50 [2, 4]: 425 nM

CCC1=C[C@@H]2CN(CCc3c([nH]c4ccccc34)[C@@](C(=O)OC)(c3cc4c(cc3OC)N(C)[C@H]3C(O)(CNC(=O)c5ccc(C)cc5)[C@H](OC(C)=O)[C@]5(CC)C=CCN6CC[C@]43[C@@H]65)C2)C1 (stereo partly shown) [BM37]
IC50 [1, 3]: 20.7 nM
IC50 [2, 4]: 16 nM

CCC1=C[C@@H]2CN(CCc3c([nH]c4ccccc34)[C@@](C(=O)OC)(c3cc4c(cc3OC)N(C)[C@H]3C(O)(CNC(C)=O)[C@H](OC(C)=O)[C@]5(CC)C=CCN6CC[C@]43[C@@H]65)C2)C1 (stereo partly shown) [BM25]
IC50 [1, 3]: > 1000 nM
IC50 [2, 4]: 477 nM

CCC1=C[C@@H]2CN(CCc3c([nH]c4ccccc34)[C@@](C(=O)OC)(c3cc4c(cc3OC)N(C)[C@H]3C(O)(CNC(=O)OC(C)(C)C)[C@H](OC(C)=O)[C@]5(CC)C=CCN6CC[C@]43[C@@H]65)C2)C1 (stereo partly shown) [BM51]
IC50 [1, 3]: 505 nM
IC50 [2, 4]: 172 nM

CCC1=C[C@@H]2CN(CCc3c([nH]c4ccccc34)[C@@](C(=O)OC)(c3cc4c(cc3OC)N(C)[C@H]3C(O)(CNC(=O)Oc5ccc(F)c(F)c5)[C@H](OC(C)=O)[C@]5(CC)C=CCN6CC[C@]43[C@@H]65)C2)C1 (stereo partly shown) [BM63]
IC50 [1, 3]: > 1000 nM
IC50 [2, 4]: 264 nM

CCC1=C[C@@H]2CN(CCc3c([nH]c4ccccc34)[C@@](C(=O)OC)(c3cc4c(cc3OC)N(C)[C@H]3C(O)(COC(=O)NCCC(C)C)[C@H](OC(C)=O)[C@]5(CC)C=CCN6CC[C@]43[C@@H]65)C2)C1 (stereo partly shown) [BM24]
IC50 [1, 3]: > 1000 nM
IC50 [2, 4]: > 1000 nM

CCC1=C[C@@H]2CN(CCc3c([nH]c4ccccc34)[C@@](C(=O)OC)(c3cc4c(cc3OC)N(C)[C@H]3C(O)(CNC(=O)Oc5ccc(F)cc5)[C@H](OC(C)=O)[C@]5(CC)C=CCN6CC[C@]43[C@@H]65)C2)C1 (stereo partly shown) [BM62]
IC50 [1, 3]: > 1000 nM
IC50 [2, 4]: 377 nM

CCC1=C[C@@H]2CN(CCc3c([nH]c4ccccc34)[C@@](C(=O)OC)(c3cc4c(cc3OC)N(C)[C@H]3C(O)(COC(C)=O)[C@H](OC(C)=O)[C@]5(CC)C=CCN6CC[C@]43C65)C2)C1 (stereo partly shown) [BM6]
IC50 [1, 3]: 124 nM
IC50 [2, 4]: 47.6 nM

CCC1=C[C@@H]2CN(CCc3c([nH]c4ccccc34)[C@@](C(=O)OC)(c3cc4c(cc3OC)N(C)[C@H]3C(O)(COC(=O)C(C)(C)C)[C@H](OC(C)=O)[C@]5(CC)C=CCN6CC[C@]43C65)C2)C1 (stereo partly shown) [BM12]
IC50 [1, 3]: 576 nM
IC50 [2, 4]: 95.9 nM

CCCCNC(=O)OCC1(O)[C@H](OC(C)=O)[C@]2(CC)C=CCN3CC[C@@]4(c5cc([C@@]6(C(=O)OC)C[C@@H]7C=C(CC)CN(CCc8c6[nH]c6ccccc86)C7)c(OC)cc5N(C)[C@@H]14)[C@@H]32 (stereo partly shown) [BM23]
IC50 [1, 3]: > 1000 nM
IC50 [2, 4]: > 1000 nM

CCC1=C[C@@H]2CN(CCc3c([nH]c4ccccc34)[C@@](C(=O)OC)(c3cc4c(cc3OC)N(C)[C@H]3C(O)(CNC(=O)c5ccncc5)[C@H](OC(C)=O)[C@]5(CC)C=CCN6CC[C@]43C65)C2)C1 (stereo partly shown) [BM42]
IC50 [1, 3]: 78.3 nM
IC50 [2, 4]: 22.4 nM

CCC1=C[C@@H]2CN(CCc3c([nH]c4ccccc34)[C@@](C(=O)OC)(c3cc4c(cc3OC)N(C)[C@H]3C(O)(CNC(=O)OCc5ccccc5OC)[C@H](OC(C)=O)[C@]5(CC)C=CCN6CC[C@]43[C@@H]65)C2)C1 (stereo partly shown) [BM67]
IC50 [1, 3]: 480 nM
IC50 [2, 4]: 176 nM

CCC1=C[C@@H]2CN(CCc3c([nH]c4ccccc34)[C@@](C(=O)OC)(c3cc4c(cc3OC)N(C)[C@H]3C(O)(COC(=O)C5CC5)[C@H](OC(C)=O)[C@]5(CC)C=CCN6CC[C@]43[C@@H]65)C2)C1 (stereo partly shown) [BM14]
IC50 [1, 3]: > 1000 nM
IC50 [2, 4]: > 1000 nM

CCCC(=O)NCC1(O)[C@H](OC(C)=O)[C@]2(CC)C=CCN3CC[C@@]4(c5cc([C@@]6(C(=O)OC)C[C@@H]7C=C(CC)CN(CCc8c6[nH]c6ccccc86)C7)c(OC)cc5N(C)[C@@H]14)[C@@H]32 (stereo partly shown) [BM29]
IC50 [1, 3]: 348 nM
IC50 [2, 4]: 126 nM

CCC1=C[C@@H]2CN(CCc3c([nH]c4ccccc34)[C@@](C(=O)OC)(c3cc4c(cc3OC)N(C)[C@H]3C(O)(CNC(=O)c5cccc(Cl)c5)[C@H](OC(C)=O)[C@]5(CC)C=CCN6CC[C@]43C65)C2)C1 (stereo partly shown) [BM40]
IC50 [1, 3]: 103 nM
IC50 [2, 4]: 42 nM

CCC1=C[C@@H]2CN(CCc3c([nH]c4ccccc34)[C@@](C(=O)OC)(c3cc4c(cc3OC)N(C)[C@H]3C(O)(CNC(=O)OCc5ccc(OC)cc5)[C@H](OC(C)=O)[C@]5(CC)C=CCN6CC[C@]43[C@@H]65)C2)C1 (stereo partly shown) [BM68]
IC50 [1, 3]: 150 nM
IC50 [2, 4]: 87.6 nM

CCC1=C[C@@H]2CN(CCc3c([nH]c4ccccc34)[C@@](C(=O)OC)(c3cc4c(cc3OC)N(C)[C@H]3C(O)(CNC(=O)OCc5ccccc5[N+](=O)[O-])[C@H](OC(C)=O)[C@]5(CC)C=CCN6CC[C@]43[C@@H]65)C2)C1 (stereo partly shown) [BM72]
IC50 [1, 3]: 830 nM
IC50 [2, 4]: 561 nM

CCC1=C[C@@H]2CN(CCc3c([nH]c4ccccc34)[C@@](C(=O)OC)(c3cc4c(cc3OC)N(C)[C@H]3C(O)(COC(=O)C(C)C)[C@H](OC(C)=O)[C@]5(CC)C=CCN6CC[C@]43[C@@H]65)C2)C1 (stereo partly shown) [BM11]
IC50 [1, 3]: > 1000 nM
IC50 [2, 4]: > 1000 nM

CCC1=C[C@@H]2CN(CCc3c([nH]c4ccccc34)[C@@](C(=O)OC)(c3cc4c(cc3OC)N(C)[C@H]3C(O)(CNC(=O)c5ccc(F)cc5)[C@H](OC(C)=O)[C@]5(CC)C=CCN6CC[C@]43C65)C2)C1 (stereo partly shown) [BM38]
IC50 [1, 3]: 46.5 nM
IC50 [2, 4]: 20.4 nM

CCC1=C[C@@H]2CN(CCc3c([nH]c4ccccc34)[C@@](C(=O)OC)(c3cc4c(cc3OC)N(C)[C@H]3C(O)(COC(=O)NCC(C)C)[C@H](OC(C)=O)[C@]5(CC)C=CCN6CC[C@]43C65)C2)C1 (stereo partly shown) [BM22]
IC50 [1, 3]: > 1000 nM
IC50 [2, 4]: > 1000 nM

CCC1=C[C@@H]2CN(CCc3c([nH]c4ccccc34)[C@@](C(=O)OC)(c3cc4c(cc3OC)N(C)[C@H]3C(O)(COC(=O)CC(C)C)[C@H](OC(C)=O)[C@]5(CC)C=CCN6CC[C@]43[C@@H]65)C2)C1 (stereo partly shown) [BM13]
IC50 [1, 3]: > 1000 nM
IC50 [2, 4]: > 1000 nM

CC[C@]1(O)C[C@H]2CN(CCc3c([nH]c4ccccc34)[C@@](C(=O)OC)(c3cc4c(cc3OC)N(C=O)[C@H]3[C@@](O)(C(=O)OC)[C@H](OC(C)=O)[C@]5(CC)C=CCN6CC[C@]43[C@@H]65)C2)C1 [Vincristine sufate, reference compound]
IC50 ([1]; A549, SRB assay, 72 hours incubation, ditartrate of all compounds used, read-out: A549 (IC50)): 25.1 nM
IC50 ([2]; SRB assay, 72 hours incubation, ditartrate of all compounds used, read-out: Hela (IC50)): 11.3 nM

CCC1=C[C@@H]2CN(CCc3c([nH]c4ccccc34)[C@@](C(=O)OC)(c3cc4c(cc3OC)N(C)[C@H]3C(O)(CNC(=O)C5CCC5)[C@H](OC(C)=O)[C@]5(CC)C=CCN6CC[C@]43[C@@H]65)C2)C1 (stereo partly shown) [BM35]
IC50 [1, 3]: 117 nM
IC50 [2, 4]: 45.2 nM

CCC1=C[C@@H]2CN(CCc3c([nH]c4ccccc34)[C@@](C(=O)OC)(c3cc4c(cc3OC)N(C)[C@H]3C(O)(CNC(=O)Cc5ccccc5)[C@H](OC(C)=O)[C@]5(CC)C=CCN6CC[C@]43C65)C2)C1 (stereo partly shown) [BM46]
IC50 [1, 3]: 174 nM
IC50 [2, 4]: 22.9 nM

CCC1=C[C@@H]2CN(CCc3c([nH]c4ccccc34)[C@@](C(=O)OC)(c3cc4c(cc3OC)N(C)[C@H]3C(O)(CNC(=O)C(F)(F)F)[C@H](OC(C)=O)[C@]5(CC)C=CCN6CC[C@]43[C@@H]65)C2)C1 (stereo partly shown) [BM26]
IC50 [1, 3]: 56.3 nM
IC50 [2, 4]: 61.6 nM

CCC1=C[C@@H]2CN(CCc3c([nH]c4ccccc34)[C@@](C(=O)OC)(c3cc4c(cc3OC)N(C)[C@H]3C(O)(CNC(=O)OCc5ccccc5)[C@H](OC(C)=O)[C@]5(CC)C=CCN6CC[C@]43[C@@H]65)C2)C1 (stereo partly shown) [BM66]
IC50 [1, 3]: 261 nM
IC50 [2, 4]: 87.5 nM
